Results published in the supplement of paper PMC3974653.
Where a name gives a salt, the structure may show the parent alone.

Test system: MTT (mouse pheochromocytoma)
Assay: IC50 of cell viability (ATP content)
Conditions: (24 or 48 h)
Method in brief: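 MTT mouse pheochromocytoma cells, cultured overnight at 37°C, 5% CO2 in DMEM with 5% FBS and 1% horse serum, were exposed in white 1536-well plates to library compounds in DMSO at final 0.5 nM to 46 µM (8 concentrations) for 24 or 48 hrs. CellTiter-Glo luminescence was normalised to positive-control (100%) and DMSO (0%) wells. A four-parameter logistic fit gave the IC50.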

Row | IC50 of cell viability [µM] | SMILES
1 | > 46 | CC1(C)NC(=O)N(c2ccc([N+](=O)[O-])c(C(F)(F)F)c2)C1=O [Nilutamide]
2 | > 46 | C[S+](=O)([O-])Nc1ccc([N+](=O)[O-])cc1Oc1ccccc1 [Nimesulide]
3 | > 46 | O=C1NCCN1c1ncc([N+](=O)[O-])s1 [Niridazole]
4 | > 46 | COC(=O)C1=C(C)NC(C)=C(C(=O)OCC(C)C)C1c1ccccc1[N+](=O)[O-] (stereo not given) [Nisoldipine]
5 | > 46 | CC(=O)Nc1ncc([N+](=O)[O-])s1 [Nithiamide]
6 | > 46 | Cc1nc([N+](=O)[O-])cn1-c1ccc([N+](=O)[O-])cc1 [Nitrefazole]
7 | > 46 | O=C1CN(/N=C/c2ccc([N+](=O)[O-])o2)C(=O)N1 [Nitrofurantoin]
8 | > 46 | NC(=O)N/N=C/c1ccc([N+](=O)[O-])o1 [Nitrofurazone]
9 | > 46 | O=[N+]([O-])c1ccc(Oc2ccc(N=C=S)cc2)cc1 [Nitroscanate]
10 | > 46 | CC(C)OC(=O)c1cc(C(=O)OC(C)C)cc([N+](=O)[O-])c1 [Nitrothal-isopropyl]
11 | > 46 | CN/C(=C\[N+](=O)[O-])NCCSCc1csc(CN(C)C)n1 [Nizatidine]
12 | > 46 | O=C(O)CCCCCCCC(=O)O [Nonanedioic acid]
13 | > 46 | NC[C@H](O)c1ccc(O)c(O)c1 [Norepinephrine bitartrate]
14 | > 46 | C[C@@]12CC[C@H]\3[C@@H](CC\C4=C3CCC(=O)C4)[C@H]1CC[C@]2(O)C#C [Norethynodrel]
15 | > 46 | CCN1\C=C(\C(O)=O)C(=O)C2=C1C=C(N3CCNCC3)C(=C2)F [Norfloxacin]
16 | > 46 | Oc1ccccc1/C=N/Cc1ccccc1 [Norletimol]
17 | > 46 | COc1ccc2c(c1OC)C(=O)O[C@H]2[C@H]1c2c(cc3c(c2OC)OCO3)CCN1C [Noscapine]
18 | > 46 | [Na+].CO[C@H]1[C@@H](OC(N)=O)[C@@H](O)[C@H](OC2=C(C)C3=C(C=C2)\C(=C(\NC(=O)C4=CC(=C([O-])C=C4)CC=C(C)C)C(=O)O3)O)OC1(C)C [Novobiocin sodium salt]
19 | > 46 | CCCCCCCCOc1ccc(C(=O)c2ccccc2)c(O)c1 [OCTABENZONUM]
20 | > 46 | CCOc1cc(-c2nccc3cc(OC)c(OC)cc23)cc(OCC)c1OCC [OCTAVERINUM]
21 | > 46 | CC(C)CCCC(C)N (stereo not given) [OCTODRINUM]
22 | > 46 | CC(C)(C)CC(C)(C)c1ccc(O)c(-n2nc3ccccc3n2)c1 [OCTRIZOLUM]
23 | > 46 | CCCCCCCCCCC(CO)CCCCCCCC (stereo not given) [OCTYLDODECANOL]
24 | > 46 | CCCCCCCCOc1ccccc1C(=O)Nc1ccc(C(=O)OCC[N+](C)(CC)CC)cc1 [OCTYLONIUM BROMIDE]
25 | > 46 | CCCC1=NC(=C([N]1CC2=CC=C(C=C2)C3=CC=CC=C3C4=N[NH]N=N4)C(=O)OCC/5=C(C)/OC(=O)O5)C(C)(C)O [OLMESARTAN MEDOXOMIL]

Row | IC50 of cell viability [µM] | SMILES
26 | > 46 | CN(C)CC/C=C1\c2ccccc2COc2ccc(CC(=O)O)cc21 [OLOPATADINE HYDROCHLORIDE]
27 | > 46 | O=C([O-])c1cc(/N=N/c2ccc(O)c(C(=O)[O-])c2)ccc1O [OLSALAZINE SODIUM]
28 | > 46 | CCN(CC)c1ccc(/N=N/c2ccc([S+](=O)([O-])N(C)C)cc2)c([S+](=O)([O-])NCC[n+]2ccccc2)c1 [ORANGE OIL]
29 | > 46 | CCCCCCCCCCCC(CC1OC(=O)C1CCCCCC)OC(=O)C(CC(C)C)NC=O (stereo not given) [ORLISTAT]
30 | > 46 | COc1ccc2c(c1)OC(C)(C)C(c1ccccc1)C2c1ccc(OCCN2CCCC2)cc1 (stereo not given) [ORMELOXIFENUM]
31 | > 46 | COc1cc(C)c(Cc2cnc(N)nc2N)cc1OC [ORMETOPRIM]
32 | > 46 | CCOC(=O)C/1=C/C(OC(CC)CC)C(NC(C)=O)C(N)C1.OC(C(O)C(O)=O)C(O)=O (stereo not given) [OSELTAMIVIR TARTRATE]
33 | > 46 | O=C([O-])c1nc(O)nc(O)n1 [OTERACIL POTASSIUM]
34 | > 46 | CC(=O)N1CC(O)CC1C(=O)O (stereo not given) [OXACEPROLUM]
35 | > 46 | CC(CC(=O)O)(CC(=O)O)C(=O)O.CCN(CC)CCOCCOC(=O)C(CC)(CC)c1ccccc1 [OXELADIN TANNATE]
36 | > 46 | NC(C(=O)O)c1ccc(O)cc1 (stereo not given) [OXFENICINUM]
37 | > 46 | CC(CN(C)C)CN1c2ccccc2[S+](=O)([O-])c2ccccc21 (stereo not given) [OXOMEMAZINE HCl]
38 | > 46 | Cn1c(=O)c2[nH]cnc2n(C)c1=O [OXTRIPHYLLINE]
39 | > 46 | CC1=CC(=C(O)C(=C1C\C2=N\CCN2)C)C(C)(C)C [OXYMETAZOLINE]
40 | > 46 | Cl.CN\1CCC\N=C1COC(=O)C(O)(C2CCCCC2)C3=CC=CC=C3 (stereo not given) [OXYPHENCYCLIMINE HYDROCHLORIDE]
41 | > 46 | CC[N+](C)(CC)CCOC(=O)C(O)(c1ccccc1)C1CCCCC1 (stereo not given) [OXYPHENONIUM BROMIDE]
42 | > 46 | CCC(C)C1NC(=O)C(Cc2ccc(O)cc2)NC(=O)C(N)CSSCC(C(=O)N2CCCC2C(=O)NC(CC(C)C)C(=O)NCC(N)=O)NC(=O)C(CC(N)=O)NC(=O)C(CCC(N)=O)NC1=O (stereo not given) [OXYTOCIN]
43 | > 46 | CC1CC(=O)N/N=C1/C2=CC=C(NCC(C)(C)NCC(O)COC3=C(C=CC(=C3)Cl)C#N)C=C2 (stereo not given) [Oberadilol]
44 | > 46 | CCCCC(CC)COC(=O)/C=C/c1ccc(OC)cc1 (stereo not given) [Octinoxate]
45 | > 46 | CCCCC(CC)COC(=O)c1ccccc1O (stereo not given) [Octisalate]
46 | > 46 | CCCCC(CC)COC(=O)C(C#N)=C(c1ccccc1)c1ccccc1 (stereo not given) [Octocrylene]
47 | > 46 | C[C@@H](O)[C@@H]1NC(=O)[C@H](CCCCN)NC(=O)[C@@H](Cc2c[nH]c3ccccc23)NC(=O)[C@H](Cc2ccccc2)NC(=O)[C@@H](NC(=O)[C@H](N)Cc2ccccc2)CSSC[C@@H](C(=O)N[C@H](CO)[C@@H](C)O)NC1=O [Octreotide]
48 | > 46 | C[C@@H]1COC2=C3N1\C=C(\C(O)=O)C(=O)C3=CC(=C2N4CCN(C)CC4)F [Ofloxacin]
49 | > 46 | CO[C@H]1C[C@H](O[C@@H]2[C@H](C)[C@H](O[C@@H]3O[C@@H](C)C[C@@H](N(C)C)[C@H]3O)[C@H](C)C[C@]3(CO3)C(=O)[C@H](C)[C@H](O)[C@H](C)[C@H](C)OC(=O)[C@@H]2C)O[C@@H](C)[C@H]1O [Oleandomycin phosphate]

Row | SMILES | IC50 of cell viability [µM]
50 | O=[N+]([O-])c1ccccc1 [Nitrobenzene] | > 46
51 | CCN(CC)Cc1nccn1-c1ccc([N+](=O)[O-])cc1C(=O)c1ccccc1Cl [Nizofenone] | > 46
52 | CCCCCCCCC(=O)NCc1ccc(O)c(OC)c1 [Nonanamide, N-[(4-hydroxy-3-methoxyphenyl)methyl]-] | > 46
53 | C[C@]12CC[C@H]3[C@@H](CCC4=CC(=O)CC[C@@H]43)[C@@H]1CC[C@@H]2O [Norandrostenolone] | > 46
54 | C#C[C@]1(OC(=O)CCCCCC)CC[C@H]2C3CCC4=CC(=O)CC[C@@H]4[C@H]3CC[C@@]21C (stereo not given in full) [Noristerat] | > 46
55 | O[C@H]1\C=C/C2[C@H]3CC4=CC=C(O)C5=C4[C@@]2(CCN3)[C@H]1O5 (stereo not given in full) [Normorphine] | > 46
56 | C[C@H]1[C@H](O)[C@@H](C)/C=C/C=C/CC/C=C/C=C/C=C/C=C/[C@H](O[C@@H]2O[C@H](C)[C@@H](O)[C@H](N)[C@@H]2O)C[C@@H]2O[C@](O)(C[C@@H](O)[C@H](O)CC[C@@H](O)C[C@@H](O)C[C@@H](O)CC(=O)O[C@H]1C)C[C@H](O)[C@H]2C(=O)O [Nystatin] | > 46
57 | Cc1ccccc1C(OCCN(C)C)c1ccccc1.O=C(O)CC(O)(CC(=O)O)C(=O)O (stereo not given) [ORPHENADRINE CITRATE] | > 46
58 | CC1OC(O[C@H]2C[C@@H](O)[C@]3(CO)[C@H]4[C@H](O)C[C@]5(C)[C@@H](C6=CC(=O)OC6)CC[C@]5(O)[C@@H]4CC[C@]3(O)C2)C(O)C(O)C1O (stereo not given in full) [OUABAIN] | > 46
59 | CC12CCC3C4CCC(=O)C(O)=C4CCC3C1CCC2OC(=O)CCC1CCCC1 (stereo not given) [OXABOLONE CIPIONATE] | > 46
60 | O=C1[O][Pt]2([NH]C3CCCCC3[NH]2)[O]C1=O (stereo not given) [OXALIPLATIN] | > 46
61 | NC1CCCCC1N.O=C([O-])C(=O)[O-].[Pt+2] (stereo not given) [OXALIPLATIN] | > 46
62 | Clc1ccc(CO/N=C(\Cn2ccnc2)c2ccc(Cl)cc2Cl)c(Cl)c1.O=[N+]([O-])O [OXICONAZOLE NITRATE] | > 46
63 | Cl.NCCc1cc(O)c(O)cc1O [OXIDOPAMINE HYDROCHLORIDE] | > 46
64 | CCN1\C=C(\C(O)=O)C(=O)C2=C1C=C3OCOC3=C2 [OXOLINIC ACID] | > 46
65 | CN(C)C1C(=O)C(C(N)=O)C(=O)C2(O)C(=O)C3C(=O)c4c(O)cccc4C(C)(O)C3C(O)C12 (stereo not given) [OXYTETRACYCLINE] | > 46
